The values below come from publication PMC12031583 (Toxins, 2025).

Data set [1] deals with T1, α1-acid glycoprotein (AGP) (Homo sapiens, UniProt P02763). The note with it: for effect on fluorescence emission signal of AGP / logK FL Quenching: pH 7.4.
Data set [2] has as its target T2, bovine serum albumin (BSA) (Bos taurus, UniProt P02769). In words: biochemical. As to conditions: logK BSA.
Data set [3] has as its target casein (CSN, bovine). In kind it is binding. The note with it: pH 6.8.
Data set [4] has as its target T1, α1-acid glycoprotein (AGP). The data set can be described thus: in vitro.
Data set [5] addresses T1, α1-acid glycoprotein (AGP). The data set can be described thus: in vitro. As to conditions: pH 7.4.
The target in data set [6] is T3, α-lactalbumin (LA, bovine) (Bos taurus, UniProt P00711). The data set is classed as binding. As to conditions: pH 6.8.
T3 sequence (P00711 20-142 limits assumed): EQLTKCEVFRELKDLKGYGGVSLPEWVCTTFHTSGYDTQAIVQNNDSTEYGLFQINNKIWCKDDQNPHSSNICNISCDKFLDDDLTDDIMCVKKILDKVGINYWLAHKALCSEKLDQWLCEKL
Data set [7] concerns the target T3, α-lactalbumin (LA, bovine). The data set can be described thus: biochemical. The data set is classed as binding.
The test system of data set [8] is human serum albumin (HSA). The note with it: cited from earlier work.
The target in data set [9] is T1, α1-acid glycoprotein (AGP). The data set can be described thus: in vitro. This is another data set of the same source.
In data set [10] the target is T2, bovine serum albumin (BSA).
Data set [11] concerns the target T4, β-lactoglobulin (LG, bovine) (Bos taurus, UniProt P02754). The data set can be described thus: biochemical. The data set is classed as binding.
For data set [12], the target named is T2, bovine serum albumin (BSA). As to conditions: cited from earlier work.
Data set [13] has as its target T1, α1-acid glycoprotein (AGP). In kind it is binding.
Data set [14] has as its target T1, α1-acid glycoprotein (AGP). As to conditions: pH 7.4.
Data set [15] deals with T1, α1-acid glycoprotein (AGP). The note with it: for logK FL Enhancement: pH 7.4.
Data set [16] relates to casein (CSN, bovine). The data set is classed as binding. The note with it: pH 6.8. The source holds these as a separate data set.
Data set [17] deals with T4, β-lactoglobulin (LG, bovine). The data set is classed as binding. The note with it: pH 6.8.

pKd: −log10 of the molar value. Several values for one entry are separate records, joined by “and”; a condition that tells them apart may be missing. Equal entries are not always repeated. Where two headings read alike, the source gives them in different places.

T2 sequence (P02769 25-607 limits assumed): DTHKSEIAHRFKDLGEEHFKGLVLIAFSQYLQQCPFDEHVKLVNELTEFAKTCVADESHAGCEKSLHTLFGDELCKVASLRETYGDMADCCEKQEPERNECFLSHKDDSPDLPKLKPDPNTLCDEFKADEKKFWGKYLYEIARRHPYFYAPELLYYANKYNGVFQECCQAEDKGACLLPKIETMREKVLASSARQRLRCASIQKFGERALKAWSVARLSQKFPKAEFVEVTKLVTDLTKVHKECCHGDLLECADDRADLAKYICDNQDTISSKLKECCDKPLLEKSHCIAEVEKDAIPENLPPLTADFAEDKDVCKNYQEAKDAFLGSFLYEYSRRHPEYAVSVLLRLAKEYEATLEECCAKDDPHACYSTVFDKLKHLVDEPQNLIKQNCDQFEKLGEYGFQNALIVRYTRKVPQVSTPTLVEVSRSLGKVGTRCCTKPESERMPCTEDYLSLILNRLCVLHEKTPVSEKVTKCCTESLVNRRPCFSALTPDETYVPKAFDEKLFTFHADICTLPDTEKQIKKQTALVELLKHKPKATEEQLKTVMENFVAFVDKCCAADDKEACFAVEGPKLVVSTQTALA
T4 sequence (P02754 17-178 limits assumed): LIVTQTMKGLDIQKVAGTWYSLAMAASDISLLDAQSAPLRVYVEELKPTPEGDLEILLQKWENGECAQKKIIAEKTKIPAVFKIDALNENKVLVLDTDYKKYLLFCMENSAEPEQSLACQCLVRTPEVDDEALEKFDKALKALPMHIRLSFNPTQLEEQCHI
T1 sequence (P02763 19-201 limits assumed): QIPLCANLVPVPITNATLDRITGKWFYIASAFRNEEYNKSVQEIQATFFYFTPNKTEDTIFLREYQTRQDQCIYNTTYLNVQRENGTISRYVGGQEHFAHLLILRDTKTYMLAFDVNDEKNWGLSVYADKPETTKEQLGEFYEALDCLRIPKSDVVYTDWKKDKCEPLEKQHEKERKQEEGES

Turning to `CCCC[C@@H](C)[C@@H](OC(=O)C[C@@H](CC(=O)O)C(=O)O)[C@H](C[C@@H](C)C[C@H](O)CCCC[C@@H](O)C[C@H](O)[C@H](C)N)OC(=O)C[C@@H](CC(=O)O)C(=O)O` [FB1, fumonisin B1], in data set [1], the “effect on fluorescence emission signal of AGP” value (“effect … of AGP” for short) was “no or only minor decreases”.
Regarding `C[C@H]1CCCC(=O)CCC/C=C/c2cc(O)cc(O)c2C(=O)O1` [ZEN, zearalenone], the pKd (commonly the Kd on a negative log10 scale, so that one unit is a factor of ten) is 4.80 and 4.79 in [2]; 5.90 in data set [4] (pH 7.4, logK FL Quenching); 5.87 in data set [4] (pH 7.4, logK ± SEM 1. (FL quenching)); 5.84 in data set [4] (pH 7.4, logK ± SEM 2. (FL quenching)); 6.00 in data set [4] (pH 7.4, logK ± SEM 3. (FL quenching)); 6.43 in data set [5]. Besides, the pKd in [7] was 2.79; in data set [9] (pH 7.4, logK FL Enhancement), 6.28; in [9] (pH 7.4, logK ± SEM 1. (FL enhancement)), 6.18; in [9] (pH 7.4, logK ± SEM 2. (FL enhancement)), 6.39; in data set [9] (pH 7.4, logK ± SEM 3. (FL enhancement)), 6.26; in [11] it was 3.05. In addition, the “logK CSN” value in [3] is listed as 3.48 ± 0.01. The “effect … of AGP” value in data set [1] is “larger, concentration-dependent decreases”. The “quenching effect on fluorescence emission signal of LA” value (“quenching effect” for short) in data set [6] is recorded as “slight”. Moreover, the “logK of complex with HSA” value in data set [8] is given as 5.1. Further, in data set [10] (bovine, ultracentrifugation, pH 6.8), the “fold higher affinity (binding constant) to BSA vs CSN” value (from here on “fold higher affinity … vs CSN”) is listed as “approximately 20 fold”. For the same compound, the “logK of ZEN–BSA and α-ZEL–BSA complexes” value in data set [12] is on record as 4.8.
For the compound aflatoxin M1 [AFM1], the “logK CSN” value in data set [3] was found to be 2.70 ± 0.08. For the same compound, in [7] (pH 6.8), the “effect of LA on mycotoxin level (free fraction) in supernatant” value is reported as “did not show interactions”. Moreover, the “fold higher affinity … vs CSN” value in [10] is recorded as 10 fold. In [10] (pH 6.8), the “logK BSA” value amounted to 3.80 ± 0.03. In addition, the “effect of LG on mycotoxin level (free fraction) in supernatant” value in data set [11] (pH 6.8) is “did not show interactions”.
As for `O=C1C=C2C(=CCOC2O)O1` (centres unmarked) [PAT, patulin], the “effect … of AGP” value in data set [1] was “no or only minor decreases”.
On to `COc1cc2c(c3oc4cccc(O)c4c(=O)c13)[C@@H]1C=CO[C@@H]1O2` [STC, sterigmatocystin], for which the negative logarithm of the Kd (pKd) in data set [2] was 4.00 and 3.98. Moreover, in data set [3], the “effect of CSN on mycotoxin level (free fraction) in supernatant” value is “not influenced”. Besides, in [1], the “effect … of AGP” value is “larger, concentration-dependent decreases”. The “effect of LA on mycotoxin level (free fraction) in supernatant” value in data set [7] (pH 6.8) was “not influenced”. Moreover, in data set [8], the “K value of STC–HSA complex” value is on record as “≈ 2 × 10^4 L/mol”. Moreover, in data set [11] (pH 6.8), the “effect of LG on mycotoxin level (free fraction) in supernatant” value is given as “not influenced”.
Regarding `C[C@H]1CCC[C@H](O)CCC/C=C/c2cc(O)cc(O)c2C(=O)O1` [α-ZEL, α-zearalenol], in data set [13], the “binding constant (K) of mycotoxin–AGP complex” value is “approximately 3 × 10^5 L/mol” and the “fold higher affinity to AGP compared to HSA” value is on record as around 5 fold. Further, the “logK CSN” value in data set [3] came to 3.54 ± 0.01. In addition, the “logK Ultracentrifugation” value in [14] is listed as 5.48 ± 0.07. In [1], the “logK ± SEM 1. (FL quenching)” value is recorded as 5.57 ± 0.07, the “logK ± SEM 2. (FL quenching)” value is 5.67 ± 0.05, the “logK ± SEM 3. (FL quenching)” value was determined as 5.70 ± 0.06 and the “logK FL Quenching” value was found to be 5.65 ± 0.04. Besides, the “quenching effect” value in data set [6] is recorded as “slight”. For the same compound, the “logK LA” value in [7] (pH 6.8) is reported as 2.92 ± 0.06. In addition, in data set [8], the “logK of complex with HSA” value is reported as 4.7. Moreover, the “fold higher affinity … vs CSN” value in data set [10] is “approximately 20 fold”. Also, the “logK LG” value in data set [11] (pH 6.8) was found to be 3.35 ± 0.03. Further, in data set [12], the “logK of ZEN–BSA and α-ZEL–BSA complexes” value is on record as 4.5. Moreover, in data set [15], the “logK ± SEM 1. (FL enhancement)” value was 5.46 ± 0.06, the “logK ± SEM 2. (FL enhancement)” value came out at 5.46 ± 0.08, the “logK ± SEM 3. (FL enhancement)” value is 5.62 ± 0.07 and the “logK FL Enhancement” value was determined as 5.51 ± 0.05. In addition, in [16], the “effect on fluorescence emission signal of CSN” value is “slight decreases”.
As to aflatoxin B1 [AFB1], the “logK CSN” value in data set [3] is 3.3 and 3.34 ± 0.03. Further, the “effect … of AGP” value in data set [1] is given as “no or only minor decreases”. Also, the “quenching effect” value in data set [6] was “slight”. In addition, the “effect of LA on mycotoxin level (free fraction) in supernatant” value in [7] (pH 6.8) is given as “did not modify”. The “logK BSA” value in data set [10] (pH 6.8) is 4.1 and 4.11 ± 0.02. In addition, the “effect of LG on mycotoxin level (free fraction) in supernatant” value in data set [11] (pH 6.8) is recorded as “did not modify”. Besides, in [12], the “logK of AFB1–BSA” value was “≈ 4.5”. In data set [16], the “effect on fluorescence emission signal of CSN” value was “slight decreases”.
Consider `Cc1cc(O)cc2oc(=O)c3c(O)cc(O)cc3c12` [AOH, alternariol], for which, in data set [12], the “logK of OTA–BSA and AOH–BSA complexes” value is 5.9.
In the case of `CC(=O)OC[C@]12C[C@H](OC(=O)CC(C)C)C(C)=C[C@H]1O[C@@H]1[C@H](O)[C@@H](OC(C)=O)[C@@]2(C)[C@]12CO2` [T2, T-2 toxin], the “effect … of AGP” value in [1] is reported as “no or only minor decreases”. The “effect on fluorescence emission signal of LG” value in [17] is given as “minor increase”.
Consider `C[C@@H]1Cc2c(Cl)cc(C(=O)N[C@@H](Cc3ccccc3)C(=O)O)c(O)c2C(=O)O1` [OTA, ochratoxin A], for which the “effect … of AGP” value in data set [1] was “no or only minor decreases”. The “quenching effect” value in data set [6] was “slight”. Moreover, in [12], the “logK of OTA–BSA and AOH–BSA complexes” value is on record as 6.5. In addition, the “effect on fluorescence emission signal of CSN” value in data set [16] is “slight decreases”.
For `CC(=O)C1=C(O)[C@@H]2[C@H]3c4c[nH]c5cccc(c45)C[C@H]3C(C)(C)N2C1=O` [CPA, cyclopiazonic acid], in data set [1], the “effect … of AGP” value is listed as “no or only minor decreases”.
Same read-out and setting: then `CC1=C[C@H]2O[C@@H]3[C@H](O)C[C@](C)([C@@]2(CO)[C@H](O)C1=O)[C@]31CO1` [DON, deoxynivalenol], with “no or only minor decreases”; and `CC1=C2C(=CO[C@H](C)[C@H]2C)C(O)=C(C(=O)O)C1=O` [CIT, citrinin], with “no or only minor decreases”.
Take `C[C@H]1CCC[C@@H](O)CCC/C=C/c2cc(O)cc(O)c2C(=O)O1` [β-ZEL, β-zearalenol]: in data set [13], the “binding constant (K) of mycotoxin–AGP complex” value was around 600000 L/mol and the “fold higher affinity to AGP compared to HSA” value is around 30 fold. The “logK Ultracentrifugation” value in [14] is 5.73 ± 0.02. Also, in [1], the “logK ± SEM 1. (FL quenching)” value worked out at 5.76 ± 0.06, the “logK ± SEM 2. (FL quenching)” value worked out at 5.82 ± 0.09, the “logK ± SEM 3. (FL quenching)” value was 5.76 ± 0.08 and the “logK FL Quenching” value is 5.78 ± 0.02. Further, the “logK of complex with HSA” value in data set [8] is listed as 4.3. Also, in [15], the “logK ± SEM 1. (FL enhancement)” value is given as 5.83 ± 0.04, the “logK ± SEM 2. (FL enhancement)” value was determined as 5.94 ± 0.16, the “logK ± SEM 3. (FL enhancement)” value is given as 6.04 ± 0.11 and the “logK FL Enhancement” value was 5.94 ± 0.06.
